{"source": "patent US20140039044A1", "about": "“Hydroxylated Polymethoxyflavone Compositions” (WLLGEN, INC., priority 2006, published 2014)", "format_in_all_cases": "cell-based, human", "key": {"[1]": {"test_system": "AGS cells", "assay": "Cell survival assay (antiproliferative IC50)", "conditions": "AGS cells; read-out: Antiproliferative IC50", "method": "(§1) Human colon carcinoma COLO205 and HT-29 cell lines (American Type Culture Collection (ATTC), Manassas, Va.) and the leukemia cell line HL-60 were maintained at 37° C. in 5% CO2 air in RPMI 1640 medium supplemented with 10% heat-inactivated fetal bovine serum (Gibco BRL, Grand Island, N.Y.), 100 units/mL penicillin, 100 μg/mL streptomycin and 2 mM 1-glutamine. The human gastric carcinoma AGS cell line (CCRC 60102), obtained from the Food Industry Research and Development Institute (Hsinchu, Taiwan), was maintained as described above, except that DMEM/F 12 was used as the medium rather than the RPMI 1640 medium. The human breast carcinoma MCF-7 cell line MCF-7 (ATTC) was cultured in RPMI 1640 medium supplemented with 5% fetal calf serum at 37° C. in a humidified atmosphere of 5% CO2 in air. The mouse macrophage cell line RAW 264.7 was maintained in RPMI 1640 supplemented with 100 U/ml penicillin, 100 μg/ml streptomycin, and 10% heat-inactivated fetal calf serum.\n(§2) Cancer cells (2×10^5) were plated in 12-well Petri dishes. The next day, the medium was changed and treated with different concentration of the test compounds or compositions for 24 h. Where individual compounds were to be tested, stock solutions of the compound was prepared to contain 200 μM of the individual hydroxylated or non-hydroxylated PMF in dimethylsulfoxide (DMSO). Control cells were treated with DMSO to a final concentration of 0.05% (v/v). Depending on the objective of the particular experiment, cells were treating with test compound or composition for 1, 3 or 6 days. At the end of incubation, cells were harvested for cell count using a hemocytometer and measuring the cellular total nucleic acid content with the CyQUANT Cell Proliferation Assay Kit (Molecular Probes).\n(§3) 1 N PMF and 6 N PMF compositions containing hydroxylated PMFs, prepared as described in Section 8.3 above, 70% PMF OPE and 5,6,7,8,3′,4′-hexamethoxyflavone (nobiletin) were tested for antiproliferative activity and apoptosis-inducing activity in HL-60, AGS and COLO205 cells as described in Section 8.4 above. Antiproliferative and apoptosis-inducing activities were derived as IC50 values and AC50, values, respectively, where AC50 is the concentration required for 50% apoptosis.\n(§4) The PMF compounds were assayed in vitro for cell growth inhibition and for their ability to induce apoptosis in various human cancer cells, including HL-60, AGS, COLO 205, and HT-29 cells, using methods described in Section 8.4 above. Antiproliferative (IC50) and apoptosis-inducing activity (AC50) of PMFs in the HL-60, AGS, COLO 205, and HT-29 cells are reported in Table 9, where *P<0.05, **P<0.01 and ***P<0.001 indicate statistically significant differences from the control group."}, "[2]": {"test_system": "COLO205 cells", "assay": "Cell survival assay (antiproliferative IC50)", "conditions": "COLO205 cells; read-out: Antiproliferative IC50", "method": "as §1, §2, §3, §4"}, "[3]": {"test_system": "HL-60 cells", "assay": "Cell survival assay (antiproliferative IC50)", "conditions": "HL-60 cells; read-out: Antiproliferative IC50", "method": "as §1, §2, §3, §4"}, "[4]": {"test_system": "AGS cells", "assay": "Apoptotic ratio by propidium iodide flow cytometry (AC50)", "conditions": "AGS cells; read-out: Apoptosis-inducing AC50", "method": "(§5) The human cancer cells (2×10^5) were cultured in 60-mm Petri dishes and incubated for 24 h. After treated with test compounds for 24 h, the cells were then harvested, washed with PBS resuspended in 200 μL of PBS, and fixed in 800 μL of iced 100% ethanol at −20° C. After being left to stand overnight, the cell pellets were collected by centrifugation, resuspended in 1 mL of hypotonic buffer (0.5% Triton X-100 in PBS and 0.5 μg/mL RNase) and incubated at 37° C. for 30 min. Next, 1 mL of propidium iodide solution (50 μg/mL) was added, and the mixture was allowed to stand on ice for 30 min. Fluorescence emitted from the propidium iodide-DNA complex was quantitated after excitation of the fluorescent dye by FACScan cytometry (Becton Dickinson, San Jose, Calif.).\nas §3, §4"}, "[5]": {"test_system": "COLO205 cells", "assay": "Apoptotic ratio by propidium iodide flow cytometry (AC50)", "conditions": "COLO205 cells; read-out: Apoptosis-inducing AC50", "method": "as §5, §3, §4"}, "[6]": {"test_system": "HL-60 cells", "assay": "Apoptotic ratio by propidium iodide flow cytometry (AC50)", "conditions": "HL-60 cells; read-out: Apoptosis-inducing AC50", "method": "as §5, §3, §4"}, "[7]": {"test_system": "HT-29 cells", "assay": "Apoptotic ratio by propidium iodide flow cytometry (AC50)", "conditions": "read-out: Apoptosis-inducing AC50", "method": "as §5, §4"}, "[8]": {"test_system": "AGS cells", "assay": "Cell cycle distribution by flow cytometry", "conditions": "24 h, Table 11", "method": "as §5\n(§6) The effects of the hydrolyzed PMF-enriched compositions, nobiletin and 70% PMF OPE on cell cycle distribution were studied, following the procedures described in Section 8.4. Results for cell cycle distribution in HL-60 cells, COLO205 cells and AGS cells are provided in Table 5, Table 6 and Table 7, respectively. […] In HL-60 cells, G2/M arrest predominated in cells treated with 6N PMF concentrations ≧5 μM and with 1N PMF concentrations ≧25 μM.\n(§7) Compounds A-K were evaluated in terms of their effects in arresting cell cycle progression by observing cell cycle phase distribution in cells treated with the compounds. Cells were treated with 5, 10, 25, 50, and 100 μM of one of compound A-K or DMSO (control) for 24 h and subjected to flow cytometric analysis after staining their DNA, as described above.\n(§8) Similar cell cycle phase distribution studies were performed in AGS, COLO205, and HT-29 cells in response to individual PMFs, with results reported in Tables 11, 12 and 13, respectively."}, "[9]": {"test_system": "COLO205 cells", "assay": "Cell cycle distribution by flow cytometry", "conditions": "COLO205 cells, 24 h, Table 12", "method": "as §5, §6, §7, §8"}}}
{"smiles": "COc1ccc(-c2oc3c(OC)c(OC)c(OC)c(OC)c3c(=O)c2O)cc1OC", "note": "[B, 3-hydroxy-5,6,7,8,3′,4-hexamethoxyflavone]", "values": [{"measurement": "IC50", "setting": "[1]", "value": "72.3 ± 7.91", "unit": "µM"}, {"measurement": "IC50", "setting": "[2]", "value": "23.3 ± 1.56", "unit": "µM"}, {"measurement": "IC50", "setting": "[3]", "value": "> 100", "unit": "µM"}, {"measurement": "AC50", "setting": "[4]", "value": "> 100", "unit": "µM"}, {"measurement": "AC50", "setting": "[5]", "value": "> 100", "unit": "µM"}, {"measurement": "AC50", "setting": "[6]", "value": "56.5 ± 2.39", "unit": "µM"}, {"measurement": "AC50", "setting": "[7]", "value": "> 100", "unit": "µM"}, {"measurement": "Cell Cycle Distribution G0/G1", "setting": "[8]; 5 μM", "value": "47.1 ± 1.27"}, {"measurement": "Cell Cycle Distribution G2/M", "setting": "[8]; 5 μM", "value": "5.6 ± 0.28"}, {"measurement": "Cell Cycle Distribution S", "setting": "[8]; 5 μM", "value": "45.8 ± 1.20"}, {"measurement": "Cell Cycle Distribution G0/G1", "setting": "[8]; 10 μM", "value": "46.7 ± 0.92"}, {"measurement": "Cell Cycle Distribution G2/M", "setting": "[8]; 10 μM", "value": "10.4 ± 0.07"}, {"measurement": "Cell Cycle Distribution S", "setting": "[8]; 10 μM", "value": "44.1 ± 0.57"}, {"measurement": "Cell Cycle Distribution G0/G1", "setting": "[8]; 25 μM", "value": "39.8 ± 0.78"}, {"measurement": "Cell Cycle Distribution G2/M", "setting": "[8]; 25 μM", "value": "6.5 ± 0.07"}, {"measurement": "Cell Cycle Distribution S", "setting": "[8]; 25 μM", "value": "54.2 ± 0.28"}, {"measurement": "Cell Cycle Distribution G0/G1", "setting": "[8]; 50 μM", "value": "43.1 ± 1.56"}, {"measurement": "Cell Cycle Distribution G2/M", "setting": "[8]; 50 μM", "value": "7.4 ± 0.42"}, {"measurement": "Cell Cycle Distribution S", "setting": "[8]; 50 μM", "value": "51.2 ± 1.06"}, {"measurement": "Cell Cycle Distribution G0/G1", "setting": "[8]; 100 μM", "value": "46.8 ± 0.28"}, {"measurement": "Cell Cycle Distribution G2/M", "setting": "[8]; 100 μM", "value": "9.3 ± 0.42"}, {"measurement": "Cell Cycle Distribution S", "setting": "[8]; 100 μM", "value": "44.5 ± 0.14"}, {"measurement": "Cell Cycle Distribution G0/G1", "setting": "[9]; 5 μM", "value": "63.59 ± 0.48"}, {"measurement": "Cell Cycle Distribution G2/M", "setting": "[9]; 5 μM", "value": "0.89 ± 0.94"}, {"measurement": "Cell Cycle Distribution S", "setting": "[9]; 5 μM", "value": "35.53 ± 0.46"}, {"measurement": "Cell Cycle Distribution G0/G1", "setting": "[9]; 10 μM", "value": "63.12 ± 0.20"}, {"measurement": "Cell Cycle Distribution G2/M", "setting": "[9]; 10 μM", "value": "5.63 ± 0.28"}, {"measurement": "Cell Cycle Distribution S", "setting": "[9]; 10 μM", "value": "31.25 ± 0.48"}, {"measurement": "Cell Cycle Distribution G0/G1", "setting": "[9]; 25 μM", "value": "64.96 ± 0.99"}, {"measurement": "Cell Cycle Distribution G2/M", "setting": "[9]; 25 μM", "value": "0.41 ± 0.31"}, {"measurement": "Cell Cycle Distribution S", "setting": "[9]; 25 μM", "value": "34.63 ± 0.68"}, {"measurement": "Cell Cycle Distribution G0/G1", "setting": "[9]; 50 μM", "value": "63.32 ± 0.52"}, {"measurement": "Cell Cycle Distribution G2/M", "setting": "[9]; 50 μM", "value": "0.31 ± 0.11"}, {"measurement": "Cell Cycle Distribution S", "setting": "[9]; 50 μM", "value": "36.39 ± 0.62"}, {"measurement": "Cell Cycle Distribution G0/G1", "setting": "[9]; 100 μM", "value": "78.51 ± 0.63"}, {"measurement": "Cell Cycle Distribution G2/M", "setting": "[9]; 100 μM", "value": "3.99 ± 0.95"}, {"measurement": "Cell Cycle Distribution S", "setting": "[9]; 100 μM", "value": "17.51 ± 1.58"}]}
